The source of these data is patent publication US8093281B2, “Indazoles as glucocorticoid receptor ligands” (Glaxo Group Limited, priority 2005, dated 2012).

SMILES strings stand for the structures.

This assay concerns NFkB activity. Kind of assay: Glucocorticoid mediated transrepression of NFkB activity (A549 cells, ELAM promoter alkaline phosphatase reporter, TNFα stimulated). The following applies: Homo sapiens, A549, 16 h, Human A549 lung epithelial cells, 3 ng/ml human recombinant TNFα, read-out: pEC50, transrepression of NFkB activity (converted). It counts as cell-based. From the text:
Human A549 lung epithelial cells were engineered to contain a secreted placental alkaline phosphatase gene under the control of the distal region of the NFkB dependent ELAM promoter as previously described in Ray, K. P., Farrow, S., Daly, M., Talabot, F. and Searle, N. “Induction of the E-selectin promoter by interleukin 1 and tumour necrosis factor alpha, and inhibition by glucocorticoids” Biochemical Journal (1997) 328: 707-15.
Compounds were solvated and diluted in DMSO, and transferred directly into assay plates such that the final concentration of DMSO was 0.7%. Following the addition of cells (40K per well), plates were incubated for 1 hr prior to the addition of 3 ng/ml human recombinant TNFα. Following continued incubation for 16 hr, alkaline phosphatase activity was determined by measuring the change in optical density at 405 nm with time following the addition of 0.7 volumes of assay buffer (1 mg/ml p-nitrophenylphosphate dissolved in 1M diethanolamine, 0.28M NaCl, 0.5 mM MgCl2). Dose response curves were constructed from which EC50 values were estimated.

For `CC(C)(CC(O)(CNc1cccc2c1cnn2-c1ccc(F)cc1)C(F)(F)F)c1cccc2c1OCC2` (racemic) [Example 11, 4-(2,3-Dihydro-1-benzofuran-7-yl)-1,1,1-trifluoro-2-({[1-(4-fluorophenyl)-1H-indazol-4-yl]amino}methyl)-4-methyl-2-pentanol], the EC50 is below 3.16 nM. As for `COc1ccc(-n2ncc3c(NCC(O)(CC(C)(C)c4cccc5c4OCC5)C(F)(F)F)cccc32)cc1` (racemic) [Example 28, 4-(2,3-Dihydro-1-benzofuran-7-yl)-1,1,1-trifluoro-4-methyl-2-[({1-[4-(methyloxy)phenyl]-1H-indazol-4-yl}amino)methyl]-2-pentanol], the EC50 is below 3.16 nM. Under `COc1ccc(F)cc1C(C)(C)CC(O)(CNc1cccc2c1cnn2-c1ccccc1F)C(F)(F)F` (single isomer, unassigned) [Example 1-A, 1,1,1-Trifluoro-4-[5-fluoro-2-(methyloxy)phenyl]-2-({[1-(2-fluorophenyl)-1H-indazol-4-yl]amino}methyl)-4-methyl-2-pentanol] stands below 3.16 nM.

For the compound `COc1ccc(F)cc1C(C)(C)CC(O)(CNc1cccc2c1cnn2-c1ccccc1F)C(F)(F)F` (racemic) [Example 1, 1,1,1-Trifluoro-4-[5-fluoro-2-(methyloxy)phenyl]-2-({[1-(2-fluorophenyl)-1H-indazol-4-yl]amino}methyl)-4-methyl-2-pentanol], the EC50 was below 3.16 nM. For `COc1ccc(F)cc1C(C)(C)CC(O)(CNc1cc(C)cc2c1cnn2-c1ccccc1F)C(F)(F)F` (racemic) [Example 25, 1,1,1-Trifluoro-4-[5-fluoro-2-(methyloxy)phenyl]-2-({[1-(2-fluorophenyl)-6-methyl-1H-indazol-4-yl]amino}methyl)-4-methyl-2-pentanol], the EC50 was below 3.16 nM. On to `CCOC(=O)c1cccc(-n2ncc3c(NCC(O)(CC(C)(C)c4cc(F)ccc4OC)C(F)(F)F)cccc32)c1` (single isomer, unassigned) [Example 6-B, Ethyl 3-(4-{[4-[5-fluoro-2-(methyloxy)phenyl]-2-hydroxy-4-methyl-2-(trifluoromethyl)pentyl]amino}-1H-indazol-1-yl)benzoate], for which the EC50 is below 3.16 nM. For `COC(=O)c1cccc(-n2ncc3c(NCC(O)(CC(C)(C)c4cc(F)ccc4OC)C(F)(F)F)cccc32)c1` (single isomer, unassigned) [Example 14-B, Methyl 3-(4-{[4-[5-fluoro-2-(methyloxy)phenyl]-2-hydroxy-4-methyl-2-(trifluoromethyl)pentyl]amino}-1H-indazol-1-yl)benzoate], the EC50 was below 3.16 nM. Under `CC(C)(CC(O)(CNc1cccc2c1cnn2-c1ccccc1)C(F)(F)F)c1cccc2c1OCC2` (racemic) [Example 8, 4-(2,3-Dihydro-1-benzofuran-7-yl)-1,1,1-trifluoro-4-methyl-2-{[(1-phenyl-1H-indazol-4-yl)amino]methyl}-2-pentanol] stands below 3.16 nM; under `COc1ccc(F)cc1C(C)(C)CC(O)(CNc1cccc2c1cnn2-c1ccc(F)cc1)C(F)(F)F` (racemic) [Example 2, 1,1,1-Trifluoro-4-[5-fluoro-2-(methyloxy)phenyl]-2-({[1-(4-fluorophenyl)-1H-indazol-4-yl]amino}methyl)-4-methyl-2-pentanol], below 3.16 nM. For `COc1ccc(F)cc1C(C)(C)CC(O)(CNc1cccc2c1cnn2-c1ccc(F)cc1F)C(F)(F)F` (racemic) [Example 4, 2-({[1-(2,4-Difluorophenyl)-1H-indazol-4-yl]amino}methyl)-1,1′-trifluoro-4-[5-fluoro-2-(methyloxy)phenyl]-4-methyl-2-pentanol], the EC50 is below 3.16 nM. In the case of `CCOC(=O)c1cccc(-n2ncc3c(NCC(O)(CC(C)(C)c4cc(F)ccc4OC)C(F)(F)F)cc(C)cc32)c1` (stereo not drawn) [Example 27, Ethyl 3-(4-{[4-[5-fluoro-2-(methyloxy)phenyl]-2-hydroxy-4-methyl-2-(trifluoromethyl)pentyl]amino}-6-methyl-1H-indazol-1-yl)benzoate], the EC50 was below 3.16 nM.

As for `CC(C)(CC(O)(CNc1cccc2c1cnn2-c1ccccc1F)C(F)(F)F)c1cccc2c1OCC2` (racemic) [Example 10, 4-(2,3-Dihydro-1-benzofuran-7-yl)-1,1,1-trifluoro-2-({[1-(2-fluorophenyl)-1H-indazol-4-yl]amino}methyl)-4-methyl-2-pentanol], the EC50 is below 3.16 nM.

As for `COC(=O)c1cccc(-n2ncc3c(NCC(O)(CC(C)(C)c4cc(F)ccc4OC)C(F)(F)F)cccc32)c1` (racemic) [Example 14, Methyl 3-(4-{[4-[5-fluoro-2-(methyloxy)phenyl]-2-hydroxy-4-methyl-2-(trifluoromethyl)pentyl]amino}-1H-indazol-1-yl)benzoate], the EC50 was below 3.16 nM. As for `COc1ccc(F)cc1C(C)(C)CC(O)(CNc1cc(C)cc2c1cnn2-c1ccccc1)C(F)(F)F` (racemic) [Example 15, 1,1,1-Trifluoro-4-[5-fluoro-2-(methyloxy)phenyl]-4-methyl-2-{[(6-methyl-1-phenyl-1H-indazol-4-yl)amino]methyl}-2-pentanol], the EC50 is below 3.16 nM. With `COc1ccc(F)cc1C(C)(C)CC(O)(CNc1cc(C)cc2c1cnn2-c1cccc(O)c1)C(F)(F)F` (stereo not drawn) [Example 23, 3-(4-{[4-[5-Fluoro-2-(methyloxy)phenyl]-2-hydroxy-4-methyl-2-(trifluoromethyl)pentyl]amino}-6-methyl-1H-indazol-1-yl)phenol], the EC50 was below 3.16 nM. On to `CCOC(=O)c1cccc(-n2ncc3c(NCC(O)(CC(C)(C)c4cccc5c4OCC5)C(F)(F)F)cccc32)c1` (racemic) [Example 9, Ethyl 3-(4-{[4-(2,3-dihydro-1-benzofuran-7-yl)-2-hydroxy-4-methyl-2-(trifluoromethyl)pentyl]amino}-1H-indazol-1-yl)benzoate], for which the EC50 was below 3.16 nM. Consider `CCOC(=O)c1cccc(-n2ncc3c(NCC(O)(CC(C)(C)c4cc(F)ccc4OC)C(F)(F)F)cccc32)c1` (racemic) [Example 6, Ethyl 3-(4-{[4-[5-fluoro-2-(methyloxy)phenyl]-2-hydroxy-4-methyl-2-(trifluoromethyl)pentyl]amino}-1H-indazol-1-yl)benzoate], for which the EC50 is below 3.16 nM.

Turning to `CC(C)(CC(O)(CNc1cccc2c1cnn2-c1ccc(F)cc1F)C(F)(F)F)c1cccc2c1OCC2` (racemic) [Example 12, 2-({[1-(2,4-Difluorophenyl)-1H-indazol-4-yl]amino}methyl)-4-(2,3-dihydro-1-benzofuran-7-yl)-1,1,1-trifluoro-4-methyl-2-pentanol], the EC50 was below 3.16 nM. As for `CC(C)(CC(O)(CNc1cccc2c1cnn2-c1ccncc1)C(F)(F)F)c1cccc2c1OCC2` (racemic) [Example 13, 4-(2,3-Dihydro-1-benzofuran-7-yl)-1,1,1-trifluoro-4-methyl-2-({[1-(4-pyridinyl)-1H-indazol-4-yl]amino}methyl)-2-pentanol], the EC50 is below 3.16 nM. `COc1ccc(-n2ncc3c(NCC(O)(CC(C)(C)c4cc(F)ccc4OC)C(F)(F)F)cc(C)cc32)cc1` (stereo not drawn) [Example 19, 1,1,1-Trifluoro-4-[5-fluoro-2-(methyloxy)phenyl]-4-methyl-2-[({6-methyl-1-[4-(methyloxy)phenyl]-1H-indazol-4-yl}amino)methyl]-2-pentanol]: the EC50 is below 3.16 nM. Turning to `COc1ccc(F)cc1C(C)(C)CC(O)(CNc1cc(C)cc2c1cnn2-c1ccc(F)cc1F)C(F)(F)F` (racemic) [Example 16, 2-({[1-(2,4-Difluorophenyl)-6-methyl-1H-indazol-4-yl]amino}methyl)-1,1,1-trifluoro-4-[5-fluoro-2-(methyloxy)phenyl]-4-methyl-2-pentanol], the EC50 was below 3.16 nM. For `COc1cccc(-n2ncc3c(NCC(O)(CC(C)(C)c4cc(F)ccc4OC)C(F)(F)F)cc(C)cc32)c1` (stereo not drawn) [Example 22, 1,1,1-Trifluoro-4-[5-fluoro-2-(methyloxy)phenyl]-4-methyl-2-[({6-methyl-1-[3-(methyloxy)phenyl]-1H-indazol-4-yl}amino)methyl]-2-pentanol], the EC50 is below 3.16 nM. `Cc1cc(NC[C@](O)(CC(C)(C)c2cc(F)ccc2O)C(F)(F)F)c2cnn(-c3ccc(F)cc3F)c2c1` [Example 18, 2(R)-2-[3-({[1-(2,4-Difluorophenyl)-6-methyl-1H-indazol-4-yl]amino}methyl)-4,4,4-trifluoro-3-hydroxy-1,1-dimethylbutyl]-4-fluorophenol]: the EC50 is below 3.16 nM. `COc1ccc(F)cc1C(C)(C)CC(O)(CNc1cccc2c1cnn2-c1ccc(F)cc1)C(F)(F)F` (single isomer, unassigned) [Example 2-B, 1,1,1-Trifluoro-4-[5-fluoro-2-(methyloxy)phenyl]-2-({[1-(4-fluorophenyl)-1H-indazol-4-yl]amino}methyl)-4-methyl-2-pentanol]: the EC50 is below 3.16 nM.
